Like-named read-outs stand apart in the source and are kept apart here. Blank lines part the entries; values can stand above or below the molecule they belong to.
Assays:
Type in all cases: cell-based, human
[1] = tested on: leukemia Jurkat E6-1 cells; assay: In vitro cellular proliferation assay (MTT/MTS)
Description: (§1) In Vitro Cellular Proliferation Assay: BT474 breast cancer cells (ATCC® HTB-20, overexpression of HER2), A549 lung cancer cells, leukemia cell CCRF-CEM (ATCC# CCL-119), and leukemia Jurkat cell were cultured at 37° C. in a 5% CO2 atmosphere and grown in Gibco® RPMI 1640 medium supplemented with 10% fetal bovine serum (FBS) and 1% antibiotic-[…] mix antibiotic supplement before use.
(§2) Exponentially growing cells were harvested and plated in 96-well plates at a concentration of 1×10^4 cells/well. After incubation at 37° C. for 24 h, the cells were treated with analogues of JS-K at different concentrations for an additional 24, 48 or 72 h. Then 20 μL of MTT (5 mg/mL) or MTS was added to each well and the plates were incubated at 37° C. for 4 h. The supernatant was discarded for MTT assay, and 100 μL of DMSO was added to each well. For the MTS assay, this step is not necessary. The absorbance was recorded at 490 nm after 15 min. Inhibition of cell growth was obtained by the following formula: Inhibition of cell growth (%)=(ODnegative control−ODtreatment)×100%/(ODnegative control−ODbackground). Data are reported as the mean of three independent experiments, each run in quintuplicate.

[2] = tested on: BT474 breast cancer cells; assay: In vitro cellular proliferation assay (MTT/MTS)
Description: as §1, §2

A549 lung cancer cells = assay: In vitro cellular proliferation assay (MTT/MTS)
Description: as §1, §2

leukemia cell CCRF-CEM = assay: In vitro cellular proliferation assay (MTT/MTS)
Description: as §1, §2

[3] = tested on: breast cancer cell MDA-MB-231; assay: In vitro cellular proliferation assay (MTT/MTS)
[4] = tested on: BT474, MDA-MB-231, A549, CCRF-CEM and Jurkat cancer cells; assay: In vitro cellular proliferation assay, comparison across the tested cancer cell panel
Description: as §1, §2

[5] = Homo sapiens, Jurkat E6.1, read-out: Half maximal inhibitory concentration (IC50)
[6] = Homo sapiens, BT-474, read-out: Half maximal inhibitory concentration (IC50)
[7] = Homo sapiens, A549, read-out: Half maximal inhibitory concentration (IC50)
[8] = Homo sapiens, CCRF-CEM, read-out: Half maximal inhibitory concentration (IC50)
[9] = Homo sapiens, MDA-MB-231, read-out: Half maximal inhibitory concentration (IC50)

Compound: O=[N+]([O-])c1ccc(O/N=[N+](\[O-])N2CCN(CCN3CCN(/[N+]([O-])=N/Oc4ccc([N+](=O)[O-])cc4[N+](=O)[O-])CC3)CC2)c([N+](=O)[O-])c1 [Compound 1, (1Z,1′Z)-1,1′-(ethane-1,2-diylbis(piperazine-4,1-diyl))bis(2-(2,4-dinitrophenoxy)diazene 1-oxide)]
IC50 [1, 5]: 3.71 ± 0.04 µM | IC50 [2, 6]: 10.7 ± 0.97 µM | IC50 (A549 lung cancer cells; [7]): 17.1 ± 1.02 µM | IC50 (leukemia cell CCRF-CEM; [8]): 2.64 ± 0.37 µM | IC50 [3, 9]: 17.6 ± 0.08 µM

Compound: O=[N+]([O-])c1ccc(O/N=[N+](\[O-])N2CCN(CCCN3CCN(/[N+]([O-])=N/Oc4ccc([N+](=O)[O-])cc4[N+](=O)[O-])CC3)CC2)c([N+](=O)[O-])c1 [Compound 2, (1Z,1′Z)-1,1′-(propane-1,3-diylbis(piperazine-4,1-diyl))bis(2-(2,4-dinitrophenoxy)diazene 1-oxide)]
IC50 [1, 5]: 4.06 ± 0.18 µM | IC50 [2, 6]: 10.8 ± 0.08 µM | IC50 (A549 lung cancer cells; [7]): 18.8 ± 0.21 µM | IC50 (leukemia cell CCRF-CEM; [8]): 3.73 ± 0.15 µM | IC50 [3, 9]: > 20 µM

Compound: O=[N+]([O-])c1ccc(O/N=[N+](\[O-])N2CCC(CN3CCN(/N=[N+](\[O-])Oc4ccc([N+](=O)[O-])cc4[N+](=O)[O-])CC3)CC2)c([N+](=O)[O-])c1 [Compound 3, (E)-1-(2,4-dinitrophenoxy)-2-(4-((1-((Z)-2-(2,4-dinitrophenoxy)-1-oxidodiazen-1-yl)piperidin-4-yl)methyl)piperazin-1-yl)diazene 1-oxide]
specific activity to human leukemia cells ([4]; among the compounds of the series): highest specific activity | selectivity to leukemia cells versus breast cancer and lung cancer cells ([4]; compared with JS-K): higher selectivity than JS-K | IC50 fold higher (less cell killing potency) than for JS-K ([4]; other four cancer cells (other than CEM), relative to JS-K): 1.9-5.4 fold | IC50 [1, 5]: 1.94 ± 0.08 µM | IC50 [2, 6]: 7.06 ± 1.03 µM | IC50 (A549 lung cancer cells; [7]): 11.3 ± 1.61 µM | IC50 (leukemia cell CCRF-CEM; [8]): 0.46 ± 0.02 µM | IC50 (leukemia cell CCRF-CEM; Homo sapiens, CCRF-CEM, read-out: IC50 against leukemia CEM cells): 0.46 µM | IC50 [3, 9]: 17.9 ± 1.01 µM

Compound: O=[N+]([O-])c1ccc(O/N=[N+](\[O-])N2CCN(CC3CCC(CN4CCN(/[N+]([O-])=N/Oc5ccc([N+](=O)[O-])cc5[N+](=O)[O-])CC4)CC3)CC2)c([N+](=O)[O-])c1 (stereo not drawn) [Compound 4, (1Z,1′Z)-1,1′-((cyclohexane-1,4-diylbis(methylene))bis(piperazine-4,1-diyl))bis(2-(2,4-dinitrophenoxy)diazene 1-oxide)]
IC50 [1, 5]: 3.01 ± 0.22 µM | IC50 [2, 6]: 6.01 ± 0.21 µM | IC50 (A549 lung cancer cells; [7]): 18.5 ± 0.15 µM | IC50 (leukemia cell CCRF-CEM; [8]): 2.54 ± 0.14 µM | IC50 [3, 9]: 16.4 ± 0.53 µM

IC50 ([1]; Jurkat E6-1 cells, read-out: Half maximal inhibitory concentration (IC50)): 0.52 ± 0.02 µM | IC50 ([2]; BT474 cells, read-out: Half maximal inhibitory concentration (IC50)): 3.66 ± 0.41 µM | IC50 (A549 lung cancer cells; A549 cells, read-out: Half maximal inhibitory concentration (IC50)): 2.11 ± 0.15 µM | IC50 (leukemia cell CCRF-CEM; leukemia CEM cells, read-out: IC50 against leukemia CEM cells): 0.29 µM | IC50 ([3]; MDA-MB-231 cells, read-out: Half maximal inhibitory concentration (IC50)): 7.93 ± 0.47 µM
Compound: CCOC(=O)N1CCN(/[N+]([O-])=N/Oc2ccc([N+](=O)[O-])cc2[N+](=O)[O-])CC1 [JS-K, O^2-(2,4-dinitrophenyl) 1-[(4-ethoxycarbonyl)piperazin-1-yl]diazen-1-ium-1,2-diolate, reference compound]
inhibitory effect on cellular proliferation ([4]; all tested cancer cells: BT474, MDA-MB-231, A549, CCRF-CEM, Jurkat): high inhibitory effect
